Source: patent publication US12071624B2, “Antisense oligonucleotide targeting ARL4C molecule, and nucleic acid drug using antisense oligonucleotide” (OSAKA UNIVERSITY, priority 2018, dated 2024)
[AmNA] = 2',4'-bridged nucleic acid with N-methyl amide bridge (AmNA); d = 2'-deoxy (DNA)

What was measured:
HLE cells [1] = experiment: Cell proliferation assay (CyQUANT NF) in HLE cells; type: cell-based; conditions: HLE cells transfected with ASO at 25 nM
Experimental: (§1) HLE cells, HCT116 cells, and A549 cells were transfected with 25 to 50 nM ASO and 10 to 20 nM siRNA using Lipofectamine 3000 (Invitrogen, Carlsbad, CA, USA) or RNAiMAX (Invitrogen). Transfected cells were used in the experiments 36 to 48 hours after the end of the transfection.
The cell proliferation assays were performed using the CyQUANT NF Cell Proliferation Assay Kits (Thermo Fisher Scientific), in the way recommended by the manufacturer.
HLE cells were transfected with control ASO, ASO-1316 and ASO-3223 at 25 nM and a proliferation assay was performed; the results of the assay are shown in (e) of FIG. 4.
HLE cells were transfected with control siRNA and PIK3CD siRNA (siRNA against PIK3CD) at 20 nM, and a proliferation assay was performed; the results are shown in (e) of FIG. 5. In addition, an anti-phosphorylated AKT antibody and an anti-AKT antibody as probes were caused to act on cell lysates of HLE cells transfected with control siRNA and PIK3CD siRNA; the results are shown in FIG. 5 (f). HLE cells were transfected with control siRNA and PIK3CD siRNA (siRNA against PIK3CD) at 20 nM and the PIK3CD mRNA amount was measured by real-time PCR; the results are shown in (c) of FIG. 7.

PIK3CD mRNA = PIK3CD mRNA amount by real-time PCR in HLE cells; type: cell-based, human; conditions: HLE cells transfected with ASO at 25 nM
Experimental: as §1
(§2) Cell migration assays and quantitative real-time PCR analyses were performed according to the methods reported by Fujii S et al. (Oncogene 2015; 34: 4834-44).
HLE cells were treated with 25 μM SecinH3 (inhibitor of Arf nucleotide-binding site opener (ARNO)) or 50 μM NSC23766 (Rac inhibitor), and the amount of PIK3CD mRNA was measured by real-time PCR; the results are shown in (c) of FIG. 5.
HLE cells were transfected with control ASO, ASO-1316, and ASO-3223 at 25 nM, and the PIK3CD mRNA amount was measured by real-time PCR; the results are shown in (g) of FIG. 5. In addition, an anti-phosphorylated AKT (pAKT S473) antibody and an anti-AKT antibody as probes were caused to act on cell lysates of HLE cells transfected with control ASO, ASO-1316, and ASO-3223; the results are shown in (h) of FIG. 5.

HLE cells [2] = experiment: Primary liver tumor model, HLE cells transplanted into mouse liver; type: in vivo; conditions: for HLE tumorigenesis in the liver: 50 μg/body subcutaneously twice a week from day 0, 29 days after transplantation
Experimental: Pellets of HLE cells (1×10^7 cells) were suspended in 100 μl of Matrigel matrix high concentration (BD Biosciences, San Jose, CA, USA) and were injected into the livers of 8-week-old male nude mice (BALB/cAJcl-nu/nu, CLEA Japan, Inc.) under anesthesia (day 0). From day 0, ASO (50 μg/body; about 2.5 mg/kg) was subcutaneously administered twice a week. Mice were euthanized 29 days after the HLE cell transplantation, and tumors were recovered and subjected to histological analysis.
In a primary liver tumor model in which HLE cells were directly transplanted into the liver, influences of the subcutaneous administration of ARL4C ASO (ASO-1316 and ASO-3223) on liver tumors was examined.
In experiments in the primary liver tumor model, Matrigel containing HEL cells at a high concentration was injected into the liver of a mouse (day 0), and control ASO, ASO-1316, and ASO-3223 were subcutaneously administered on and after day 0, at a frequency of twice a week. The tumor formed in the liver was observed when 29 days had elapsed since the transplantation; the result is shown in (a) of FIG. 8. In addition, when 29 days had elapsed since the transplantation, the tumor formed in the liver was immunostained with an anti-ARL4C antibody and an anti-PIK3CD antibody, the result of which is shown in (b) of FIG. 8, and the tumor was immunostained with an anti-Ki-67 antibody, the result of which is shown in (c) of FIG. 8.

HLE cells [3] = experiment: Cell migration assay in HLE/GFP and HLE/ARL4C-GFP cells; type: cell-based; conditions: HLE/GFP or HLE/ARL4C-GFP cells transfected at 25 nM
Description: HLE cells allowing for the stable expression of GFP (HLE/GFP cells), HLE cells allowing for the stable expression of ARL4c-GFP with GFP fused to the C-terminal side (HLE/ARL4C-GFP cells, i.e., cells in which ARL4C-GFP is transduced and stably expressed), HCT116 cells allowing for the stable expression of luciferase (HCT116/Luc cells), A549 cells allowing for the stable expression of luciferase (A549/Luc cells), and S2-CP8 cells allowing for the stable expression of luciferase (S2-CP8/Luc cells) were produced using lentivirus according to the method reported by Matsumoto S et al. (EMBO J 2014; 33: 702-18) and Fujii S et al. (Oncogene 2015; 34: 4834-44). In addition, ARL4C-GFP is ARL4C with GFP fused thereto.
as §1
Cell migration assays and quantitative real-time PCR analyses were performed according to the methods reported by Fujii S et al. (Oncogene 2015; 34: 4834-44). […]

ARL4C mRNA = experiment: Screening of ARL4C ASO knockdown efficiency by real-time PCR in A549 cells; type: cell-based, human; conditions: screening of 38 types of ARL4C ASOs
Experimental: as §1, §2
First, base sequences of 15-nucleotide ARL4C were selected based on the structure of ARL4C mRNA. From thousands of ARL4C ASO candidates, those that may cause hepatotoxicity were excluded, and 38 types of ARL4C ASOs (those other than ASO-1312, ASO-1450 and ASO-3223 among the ASOs in Table 1) were selected, by high-dimensional structure prediction of ARL4C mRNA. The ASOs used in this test were those in which all of the phosphodiester bonds were substituted with phosphorothioate bonds. Knockdown efficiencies of ARL4C ASOs in A549 cells (lung adenocarcinoma cells) were investigated by screening experiments using real-time PCR. It has been confirmed that the protein abundance of ARL4C in A549 cells is reduced by treatment with ARL4C siRNA. The ARL4C mRNA amounts in A549 cells treated with 38 types of ARL4C ASOs were measured, and the results are shown in (a) of FIG. 3.

[4] = subcutaneous twice a week, day 29

| Substance | cell proliferation (HLE cells [1]) | PIK3CD mRNA amount / PIK3CD expression (PIK3CD mRNA) | HLE tumorigenesis in the liver (HLE cells [2]) | tumor size as compared with the control ASO (HLE cells [2]; 50 μg/body subcutaneously twice a week, day 29) | expression of ARL4C in tumors formed in the liver (immunostaining) (HLE cells [2]; [4]) | expression of PIK3CD in tumors formed in the liver (immunostaining) (HLE cells [2]; [4]) | histological damage or cell death in the non-tumor area of the liver (HLE cells [2]; [4]) | number of Ki-67-positive cells in liver tumors (HLE cells [2]; [4]) | cell migration (HLE cells [3]) | knockdown efficiency (ARL4C mRNA amount) (ARL4C mRNA) | antitumor effect in vivo (HLE cells [2]; primary liver tumor model) |
| --- | --- | --- | --- | --- | --- | --- | --- | --- | --- | --- | --- |
| ASO-1316: 15-mer AmNA/phosphorothioate ASO targeting ARL4C, base sequence SEQ ID NO: 1 gcatacctcaggtaa; Table 1 SEQ ID NO 13 (antisense GCATACCTCAGGTAA; AmNA and phosphorothioate modified, pattern not given here) | inhibit HLE cells from proliferating | suppressing PIK3CD expression | able to suppress the HLE tumorigenesis | reduce the tumor size by half | suppress the expression of ARL4C and PIK3CD | suppress the expression of ARL4C and PIK3CD | did not induce histological damage or cell death | reduce the number of Ki-67-positive cells | suppress the migration of HLE cells | high knockdown efficiencies |  |
| ASO-3223: 19-mer ARL4C ASO of Table 1, SEQ ID NO 55 (antisense NNNGGTTACAGTATTTNNC; sugars from the 5' end [AmNA]3 d13 [AmNA]2 d1, backbone, methylation of C and the base at N not given here; further chemistry not fully specified) | inhibit HLE cells from proliferating | suppressing PIK3CD expression | almost no influence |  | almost no influence | almost no influence |  | almost no influence | suppress the migration of HLE cells |  | no antitumor effect was observed |
